Measured values taken from patent US20110092548A1, “METHOD FOR TREATING/PREVENTING DISEASE USING COGNITIVE ABILITY OF CEREBRUM AND PHARMACEUTICAL” (priority 2006, published 2011).

Tests used:
[1] = test system: large intestine cancer patients; test: Treatment of large intestine cancer patients (Example 2); assay type: in vivo, human; conditions: Table 2
Description: Next, treatment of 11 large intestine cancer patients is described.
In principle, the same as Example 1.
The following is course of treatment of the large intestine cancer patients.

[2] = cited from earlier work

**Q.** With `O=C1O[C@H]([C@@H](O)CO)C(O)=C1O` [vitamin C, ascorbic acid] as the molecule, how does the Alive or dead [1] read?
**A.** The Alive or dead was “Alive”.

**Q.** And the stability to heat ([2]; heat)?
**A.** Its stability to heat is “weak to heat”.

**Q.** What about the oxidation reduction potential ([2]; pH 7.0) of the same molecule?
**A.** Its oxidation reduction potential is “+0.058 V”.
